Tests used:
Format in all cases: in vivo
[1] = test system: wheat; test: Test D pre-emergence, wheat seed treated with a herbicide safener; settings: 100=total damage, 0=no damage
Procedure: (§1) A formulation containing 50 g/L of the test chemical was prepared by dissolving the active ingredient in a mixture of organic solvents and emulsifier, details of which are provided in the table. This formulation was then mixed with a small, variable amount of acetone to aid dissolution, before addition of a 0.2% v/v aqueous solution of an adjuvant, as the aqueous diluent, to form an aqueous spray solution which contains a predetermined concentration of the active ingredient.
(§2) This aqueous spray solution was then sprayed onto plants including maize and wheat that had been seed treated with a herbicide safener, after one day's cultivation (for pre-emergence) or after about 12 days' cultivation (for post-emergence). The plants were grown from seeds sown in standard soil, placed in a glasshouse under controlled conditions (at 24/18° C. or 20/16° C., day/night; 16 h light; 65% humidity). After spray application the plants were then grown in a glasshouse under the same conditions and watered twice daily. After 15 d for post-emergence and 20 DAA for pre-emergence the test was evaluated (100=total damage to plant; 0=no damage to plant).

[2] = test system: giant foxtail (Setaria faberi, SETFA); test: Test A pre-emergence, giant foxtail; settings: after 13 d
How it was run: (§3)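 Each compound is applied pre-emergence at 15.625, 62.5 or 250 g/ha, one day after seeds are sown in standard soil. Plants are then grown in a glasshouse at 24/16° C. with 14 h light and 65% humidity, and injury is scored 0–100 at 13 d.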

[3] = test system: giant foxtail (Setaria faberi, SETFA); test: Test A post-emergence, giant foxtail; settings: after 13 d
How it was run: (§4)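 Visual damage at 13 d after treatment, rated from 0 (no damage) to 100 (total damage). Eight-day-old pot-grown plants had been sprayed with 15.625, 62.5 or 250 g/ha of compound in aqueous acetone (50:50) containing 0.5% Tween 20.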

[4] = test system: barnyardgrass (Echinochloa crus-galli, ECHCG); test: Test A post-emergence, barnyardgrass; settings: after 13 d
How it was run: as §4

[5] = test system: velvetleaf (Abutilon theophrasti, ABUTH); test: Test A post-emergence, velvetleaf; settings: after 13 d
How it was run: as §4

[6] = test system: corn (Zea mays, ZEAMX); test: Test A pre-emergence, corn; settings: after 13 d
How it was run: as §3

[7] = test system: redroot pigweed (Amaranthus retroflexus, AMARE); test: Test A pre-emergence, redroot pigweed; settings: after 13 d
How it was run: as §3

[8] = test system: maize; test: Test D pre-emergence, maize seed treated with a herbicide safener; settings: ZEAMX, preemergent, 20 DAA
Procedure: as §1, §2

[9] = test system: redroot pigweed (Amaranthus retroflexus, AMARE); test: Test A post-emergence, redroot pigweed; settings: after 13 d
How it was run: as §4

[10] = test system: velvetleaf (Abutilon theophrasti, ABUTH); test: Test A pre-emergence, velvetleaf; settings: after 13 d
How it was run: as §3

Compound: CN1CC(c2cc(C(F)(F)F)n(C)n2)C(C(=O)Nc2ccc(F)cc2F)C1=O (racemic) [Compound 6]
- damage to plant, TRZAW ([1]; rate 15, 20 DAA): 0
- damage to plant, TRZAW ([1]; rate 30, 20 DAA): 0
- damage to plant, TRZAW ([1]; rate 60, 20 DAA): 0
- damage to plant, TRZAW ([1]; rate 130, 20 DAA): 0
- damage to plant, TRZAW ([1]; rate 250, 20 DAA): 0
- damage to plant, TRZAW ([1]; rate 500, 20 DAA): 10
- damage to plant (100=total damage; 0=no damage) SETFA ([2]; Pre-Emergence at 15.625 g/ha): 80
- damage to plant (100=total damage; 0=no damage) SETFA ([2]; Pre-Emergence at 62.5 g/ha): 90
- damage to plant (100=total damage; 0=no damage) SETFA ([2]; Pre-Emergence at 250 g/ha): 90
- damage to plant (100=total damage; 0=no damage) SETFA ([3]; Post-Emergence at 15.625 g/ha): 0
- damage to plant (100=total damage; 0=no damage) SETFA ([3]; Post-Emergence at 62.5 g/ha): 70
- damage to plant (100=total damage; 0=no damage) SETFA ([3]; Post-Emergence at 250 g/ha): 70
- damage to plant (100=total damage; 0=no damage) ECHCG ([4]; Post-Emergence at 15.625 g/ha): 70
- damage to plant (100=total damage; 0=no damage) ECHCG ([4]; Post-Emergence at 62.5 g/ha): 70
- damage to plant (100=total damage; 0=no damage) ECHCG ([4]; Post-Emergence at 250 g/ha): 70
- damage to plant (100=total damage; 0=no damage) ABUTH ([5]; Post-Emergence at 15.625 g/ha): 60
- damage to plant (100=total damage; 0=no damage) ABUTH ([5]; Post-Emergence at 62.5 g/ha): 70
- damage to plant (100=total damage; 0=no damage) ABUTH ([5]; Post-Emergence at 250 g/ha): 60
- damage to plant (100=total damage; 0=no damage) ZEAMX ([6]; Pre-Emergence at 15.625 g/ha): 10
- damage to plant (100=total damage; 0=no damage) ZEAMX ([6]; Pre-Emergence at 62.5 g/ha): 20
- damage to plant (100=total damage; 0=no damage) ZEAMX ([6]; Pre-Emergence at 250 g/ha): 60
- damage to plant (100=total damage; 0=no damage) AMARE ([7]; Pre-Emergence at 15.625 g/ha): 20
- damage to plant (100=total damage; 0=no damage) AMARE ([7]; Pre-Emergence at 62.5 g/ha): 20
- damage to plant (100=total damage; 0=no damage) AMARE ([7]; Pre-Emergence at 250 g/ha): 50
- damage to plant (100=total damage to plant; 0=no damage to plant), ZEAMX ([8]; rate 15): 0
- damage to plant (100=total damage to plant; 0=no damage to plant), ZEAMX ([8]; rate 30): 0
- damage to plant (100=total damage to plant; 0=no damage to plant), ZEAMX ([8]; rate 60): 0
- damage to plant (100=total damage to plant; 0=no damage to plant), ZEAMX ([8]; rate 130): 0
- damage to plant (100=total damage to plant; 0=no damage to plant), ZEAMX ([8]; rate 250): 0
- damage to plant (100=total damage to plant; 0=no damage to plant), ZEAMX ([8]; rate 500): 0
- damage to plant (100=total damage; 0=no damage) AMARE ([9]; Post-Emergence at 15.625 g/ha): 0
- damage to plant (100=total damage; 0=no damage) AMARE ([9]; Post-Emergence at 62.5 g/ha): 10
- damage to plant (100=total damage; 0=no damage) AMARE ([9]; Post-Emergence at 250 g/ha): 10
- damage to plant (100=total damage; 0=no damage) ABUTH ([10]; Pre-Emergence at 15.625 g/ha): 80
- damage to plant (100=total damage; 0=no damage) ABUTH ([10]; Pre-Emergence at 62.5 g/ha): 70
- damage to plant (100=total damage; 0=no damage) ABUTH ([10]; Pre-Emergence at 250 g/ha): 70

Compound: CCn1nc([C@H]2CN(C)C(=O)[C@@H]2C(=O)Nc2cccc(F)c2F)c2cc(F)ccc21 [Compound 8]
- damage to plant, TRZAW ([1]; rate 15, 20 DAA): 0
- damage to plant, TRZAW ([1]; rate 30, 20 DAA): 0
- damage to plant, TRZAW ([1]; rate 60, 20 DAA): 0
- damage to plant, TRZAW ([1]; rate 130, 20 DAA): 0
- damage to plant, TRZAW ([1]; rate 250, 20 DAA): 0
- damage to plant, TRZAW ([1]; rate 500, 20 DAA): 0
- damage to plant (100=total damage; 0=no damage) SETFA ([2]; Pre-Emergence at 15.625 g/ha): 80
- damage to plant (100=total damage; 0=no damage) SETFA ([2]; Pre-Emergence at 62.5 g/ha): 90
- damage to plant (100=total damage; 0=no damage) SETFA ([2]; Pre-Emergence at 250 g/ha): 90
- damage to plant (100=total damage; 0=no damage) SETFA ([3]; Post-Emergence at 15.625 g/ha): 70
- damage to plant (100=total damage; 0=no damage) SETFA ([3]; Post-Emergence at 62.5 g/ha): 70
- damage to plant (100=total damage; 0=no damage) SETFA ([3]; Post-Emergence at 250 g/ha): 80
- damage to plant (100=total damage; 0=no damage) ECHCG ([4]; Post-Emergence at 15.625 g/ha): 60
- damage to plant (100=total damage; 0=no damage) ECHCG ([4]; Post-Emergence at 62.5 g/ha): 70
- damage to plant (100=total damage; 0=no damage) ECHCG ([4]; Post-Emergence at 250 g/ha): 80
- damage to plant (100=total damage; 0=no damage) ABUTH ([5]; Post-Emergence at 15.625 g/ha): 0
- damage to plant (100=total damage; 0=no damage) ABUTH ([5]; Post-Emergence at 62.5 g/ha): 0
- damage to plant (100=total damage; 0=no damage) ABUTH ([5]; Post-Emergence at 250 g/ha): 0
- damage to plant (100=total damage; 0=no damage) ZEAMX ([6]; Pre-Emergence at 15.625 g/ha): 20
- damage to plant (100=total damage; 0=no damage) ZEAMX ([6]; Pre-Emergence at 62.5 g/ha): 40
- damage to plant (100=total damage; 0=no damage) ZEAMX ([6]; Pre-Emergence at 250 g/ha): 70
- damage to plant (100=total damage; 0=no damage) AMARE ([7]; Pre-Emergence at 15.625 g/ha): 0
- damage to plant (100=total damage; 0=no damage) AMARE ([7]; Pre-Emergence at 62.5 g/ha): 0
- damage to plant (100=total damage; 0=no damage) AMARE ([7]; Pre-Emergence at 250 g/ha): 0
- damage to plant (100=total damage to plant; 0=no damage to plant), ZEAMX ([8]; rate 15): 0
- damage to plant (100=total damage to plant; 0=no damage to plant), ZEAMX ([8]; rate 30): 0
- damage to plant (100=total damage to plant; 0=no damage to plant), ZEAMX ([8]; rate 60): 0
- damage to plant (100=total damage to plant; 0=no damage to plant), ZEAMX ([8]; rate 130): 0
- damage to plant (100=total damage to plant; 0=no damage to plant), ZEAMX ([8]; rate 250): 0
- damage to plant (100=total damage to plant; 0=no damage to plant), ZEAMX ([8]; rate 500): 10
- damage to plant (100=total damage; 0=no damage) AMARE ([9]; Post-Emergence at 15.625 g/ha): 0
- damage to plant (100=total damage; 0=no damage) AMARE ([9]; Post-Emergence at 62.5 g/ha): 0
- damage to plant (100=total damage; 0=no damage) AMARE ([9]; Post-Emergence at 250 g/ha): 0
- damage to plant (100=total damage; 0=no damage) ABUTH ([10]; Pre-Emergence at 15.625 g/ha): 0
- damage to plant (100=total damage; 0=no damage) ABUTH ([10]; Pre-Emergence at 62.5 g/ha): 0
- damage to plant (100=total damage; 0=no damage) ABUTH ([10]; Pre-Emergence at 250 g/ha): 0

From US20220281848A1, “PYRAZOLE-SUBSTITUTED PYRROLIDINONES AS HERBICIDES” (FMC Corporation, priority 2019, published 2022)
